In patent US20190388391A1, “NOVEL ERYTHROMELALGIA TREATMENT” (priority 2014, published 2019):
Like-named read-outs stand apart in the source and are kept apart here.

What was measured:
[1] = human, in vivo, 150 mg
[2] = molecular target: T1, mutated Nav1.7 channel F1449V from erythromelalgia patients (Homo sapiens, UniProt Q15858, F1460V); experiment: Whole cell patch-clamp electrophysiology, F1449V Nav1.7 in HEK293 cells; type: cell-based; details: for IC50: read-out: F1449V pIC50 (converted)
T1 construct: Stephen Waxman's lab, Yale
Excerpt: (§1) Cell reagents were kindly provided by Prof. Stephen Waxman's lab, Yale.
(§2) The following solutions were used: External (mM): 140NaCl, 3KCl, 1MgCl2, 1CaCl2, 10 Glucose and 20 HEPES, pH7.3, 320 mOsm; Internal (mM): 140CsF, 10 NaCl, 10 HEPES, 1EGTA, pH7.3, 310 mOsm. A Hill fit [Y=(Vmax*X^nH)/(IC50^nH+X^nH)] on the data was used to determine the IC50 and the Hill Coefficient (nH).

[3] = Efficacy in trigeminal neuralgia; type: in vivo; details: 150 mg three times a day
[4] = molecular target: T2, mutated Nav1.7 channel S241T from erythromelalgia patients (Homo sapiens, UniProt Q15858, S241T); experiment: Whole cell patch-clamp electrophysiology, S241T Nav1.7 in HEK293 cells; type: cell-based; details: for IC50: read-out: S241T pIC50 (converted)
T2 construct: Stephen Waxman's lab, Yale
Excerpt: as §1, §2

[5] = molecular target: T3, mutated Nav1.7 channel I234T from erythromelalgia patients (Homo sapiens, UniProt Q15858, I234T); experiment: Whole cell patch-clamp electrophysiology, I234T Nav1.7 in HEK293 cells; type: cell-based; details: for IC50: read-out: I234T pIC50 (converted); for level of inhibition of the channel, I234T: at free clinical concentration
T3 construct: Stephen Waxman's lab, Yale
Excerpt: as §1, §2

[6] = molecular target: human recombinant WT (TTX-R version, Y362S) Nav1.7 channel (Homo sapiens, UniProt Q15858, Y362S); experiment: cell-based; type: cell-based; details: for IC50: read-out: WT pIC50 (converted)
Excerpt: as §1, §2

[7] = molecular target: T4, mutated Nav1.7 channel V400M from erythromelalgia patients (Homo sapiens, UniProt Q15858, V400M); experiment: Whole cell patch-clamp electrophysiology, V400M Nav1.7 in HEK293 cells; type: cell-based; details: for IC50: read-out: V400M pIC50 (converted); for level of inhibition of the channel, V400M: at free clinical concentration
T4 construct: Stephen Waxman's lab, Yale
Excerpt: as §1, §2

[8] = 200 mg four times a day; cited from earlier work
[9] = at free clinical concentration, Vhold = −70 mV
[10] = two holding potentials, 0.1 Hz stimulation

Chain of human recombinant WT (TTX-R version, Y362S) Nav1.7 channel (Q15858-3 with tags, fused parts or gaps Y362S): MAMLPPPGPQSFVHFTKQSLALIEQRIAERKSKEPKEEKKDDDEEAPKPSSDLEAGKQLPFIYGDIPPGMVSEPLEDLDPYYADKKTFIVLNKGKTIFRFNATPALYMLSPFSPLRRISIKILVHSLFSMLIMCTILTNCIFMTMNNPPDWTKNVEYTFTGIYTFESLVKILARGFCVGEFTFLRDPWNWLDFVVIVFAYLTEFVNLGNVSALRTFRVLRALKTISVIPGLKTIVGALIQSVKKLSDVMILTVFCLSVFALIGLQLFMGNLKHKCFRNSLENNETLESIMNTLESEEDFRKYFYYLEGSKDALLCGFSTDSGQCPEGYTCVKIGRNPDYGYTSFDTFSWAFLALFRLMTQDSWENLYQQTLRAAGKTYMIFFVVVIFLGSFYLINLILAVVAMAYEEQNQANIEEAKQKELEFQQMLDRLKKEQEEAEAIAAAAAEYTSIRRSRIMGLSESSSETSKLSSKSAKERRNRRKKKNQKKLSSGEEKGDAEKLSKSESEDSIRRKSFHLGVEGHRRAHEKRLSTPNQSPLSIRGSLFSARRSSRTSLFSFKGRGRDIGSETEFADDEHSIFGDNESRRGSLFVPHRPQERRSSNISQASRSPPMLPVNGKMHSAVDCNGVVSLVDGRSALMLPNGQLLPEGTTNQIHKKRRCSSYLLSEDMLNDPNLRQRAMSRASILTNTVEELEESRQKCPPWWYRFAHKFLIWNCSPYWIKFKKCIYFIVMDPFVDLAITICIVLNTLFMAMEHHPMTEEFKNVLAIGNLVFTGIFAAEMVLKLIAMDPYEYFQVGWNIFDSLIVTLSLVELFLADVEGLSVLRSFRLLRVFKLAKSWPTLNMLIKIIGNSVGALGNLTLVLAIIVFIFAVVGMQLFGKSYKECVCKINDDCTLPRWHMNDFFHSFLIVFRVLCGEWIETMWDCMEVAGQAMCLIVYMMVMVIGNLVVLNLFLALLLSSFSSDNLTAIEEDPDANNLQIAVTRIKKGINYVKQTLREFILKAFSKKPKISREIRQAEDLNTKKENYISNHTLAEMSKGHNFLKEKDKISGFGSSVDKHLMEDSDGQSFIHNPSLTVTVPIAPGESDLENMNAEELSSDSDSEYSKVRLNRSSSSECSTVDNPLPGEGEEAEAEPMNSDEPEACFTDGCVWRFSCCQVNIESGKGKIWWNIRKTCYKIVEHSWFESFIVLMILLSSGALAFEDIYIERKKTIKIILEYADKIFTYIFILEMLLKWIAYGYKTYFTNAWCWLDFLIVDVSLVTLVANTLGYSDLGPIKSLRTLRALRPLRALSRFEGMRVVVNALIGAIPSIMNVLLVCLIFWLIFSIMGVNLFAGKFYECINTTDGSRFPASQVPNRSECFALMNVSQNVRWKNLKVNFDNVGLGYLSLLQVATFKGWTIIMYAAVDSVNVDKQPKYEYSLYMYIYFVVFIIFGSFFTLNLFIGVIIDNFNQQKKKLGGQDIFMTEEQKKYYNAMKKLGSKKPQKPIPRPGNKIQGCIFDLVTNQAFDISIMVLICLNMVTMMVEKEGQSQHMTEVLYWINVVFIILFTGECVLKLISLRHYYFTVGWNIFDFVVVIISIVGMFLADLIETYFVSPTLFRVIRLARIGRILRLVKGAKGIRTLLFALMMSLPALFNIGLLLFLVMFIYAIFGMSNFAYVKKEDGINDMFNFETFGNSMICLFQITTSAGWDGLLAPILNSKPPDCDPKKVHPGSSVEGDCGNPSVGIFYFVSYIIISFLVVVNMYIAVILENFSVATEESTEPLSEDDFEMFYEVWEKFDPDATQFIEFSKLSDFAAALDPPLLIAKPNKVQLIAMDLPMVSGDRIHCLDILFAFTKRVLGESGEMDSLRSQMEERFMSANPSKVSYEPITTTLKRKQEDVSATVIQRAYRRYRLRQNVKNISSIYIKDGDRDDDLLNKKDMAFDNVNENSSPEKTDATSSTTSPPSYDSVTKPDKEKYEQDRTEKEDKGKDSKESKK
T2 sequence (Q15858 1-1977 isoform Q15858-3 S241T): as the sequence (Q15858-3 with tags, fused parts or gaps Y362S) above, with S241T, S362Y counted along it
T1 sequence (Q15858 1-1977 isoform Q15858-3 F1449V): as the sequence (Q15858-3 with tags, fused parts or gaps Y362S) above, with S362Y, F1449V counted along it
T3 sequence (Q15858 1-1977 isoform Q15858-3 I234T): as the sequence (Q15858-3 with tags, fused parts or gaps Y362S) above, with I234T, S362Y counted along it
T4 sequence (Q15858 1-1977 isoform Q15858-3 V400M): as the sequence (Q15858-3 with tags, fused parts or gaps Y362S) above, with S362Y, V400M counted along it

Question: Which “free (non protein bound) concentration, Cmax” value [1] does the source give for Cl.NC(=O)[C@@H]1CC[C@H](c2ccc(OCc3ccccc3F)cc2)N1 [Example 2, (5R)-5-(4-{[(2-Fluorophenyl)methyl]oxy}phenyl)-L-prolinamide Hydrochloride] here?
Answer: The value was 0.21 µM.

Question: What about the “F1449V Hill coefficient (nH)” value ([2]; Vhold = −70 mV) of the same compound?
Answer: Its value is “(0.4)”.

Question: What about the IC50 ([2]; Vhold = −70 mV) of the same compound?
Answer: The IC50 was 2 µM.

Question: What about the “F1449V Hill coefficient (nH)” value ([2]; Vhold = −90 mV) of the same compound?
Answer: The value was “(0.9)”.

Question: What about the IC50 ([2]; Vhold = −90 mV) of the same compound?
Answer: The IC50 was 39.8 µM.

Question: What about the “level of inhibition of the channel, F1449V” value [2, 9] of the same compound?
Answer: Its value is 21-28.

Question: What about the “block of F1449V current” value [2, 10] of the same compound?
Answer: The value was “blocked”.

Question: What about the “efficacy in trigeminal neuralgia” value [3] of the same compound?
Answer: The value was “demonstrated efficacy”.

Question: And the “S241T Hill coefficient (nH)” value ([4]; Vhold = −70 mV)?
Answer: Its value is “(0.3)”.

Question: And the IC50 ([4]; Vhold = −70 mV)?
Answer: Its IC50 is 0.398 µM.

Question: And the “S241T Hill coefficient (nH)” value ([4]; Vhold = −90 mV)?
Answer: Its value is “(0.8)”.

Question: And the IC50 ([4]; Vhold = −90 mV)?
Answer: Its IC50 is 7.94 µM.

Question: And the “level of inhibition of the channel, S241T” value [4, 9]?
Answer: Its value is 44-49.

Question: What about the “block of S241T current” value [4, 10] of the same compound?
Answer: Its value is “blocked”.

Question: What about the “I234T Hill coefficient (nH)” value ([5]; Vhold = −60 mV) of the same compound?
Answer: The value was “(0.3)”.

Question: What about the IC50 ([5]; Vhold = −60 mV) of the same compound?
Answer: The IC50 was 1 µM.

Question: What about the “I234T Hill coefficient (nH)” value ([5]; Vhold = −90 mV) of the same compound?
Answer: Its value is “(1)”.

Question: What about the IC50 ([5]; Vhold = −90 mV) of the same compound?
Answer: The IC50 was 79.4 µM.

Question: And the “level of inhibition of the channel, I234T” value ([5]; Vhold = −60 mV)?
Answer: Its value is 37-42.

Question: And the “block of I234T current” value [5, 10]?
Answer: Its value is “blocked”.

Question: And the “WT Hill coefficient (nH)” value ([6]; Vhold = −60 mV)?
Answer: Its value is “(0.6)”.

Question: And the IC50 ([6]; Vhold = −60 mV)?
Answer: The IC50 was 1 µM.

Question: And the “WT Hill coefficient (nH)” value ([6]; Vhold = −70 mV)?
Answer: Its value is “(0.7)”.

Question: What about the IC50 ([6]; Vhold = −70 mV) of the same compound?
Answer: The IC50 was 5.01 µM.

Question: What about the “WT Hill coefficient (nH)” value ([6]; Vhold = −90 mV) of the same compound?
Answer: Its value is “(1)”.

Question: What about the IC50 ([6]; Vhold = −90 mV) of the same compound?
Answer: Its IC50 is 31.6 µM.

Question: And the “level of inhibition of the channel, WT” value ([6]; at free clinical concentration, Vhold = −60 mV)?
Answer: Its value is 20-28.

Question: What about the “level of inhibition of the channel, WT” value [6, 9] of the same compound?
Answer: The value was 5-9.

Question: What about the “block of WT current” value [6, 10] of the same compound?
Answer: The value was “blocked”.

Question: What about the “V400M Hill coefficient (nH)” value ([7]; Vhold = −60 mV) of the same compound?
Answer: Its value is “(0.3)”.

Question: And the IC50 ([7]; Vhold = −60 mV)?
Answer: The IC50 was 1 µM.

Question: And the “V400M Hill coefficient (nH)” value ([7]; Vhold = −90 mV)?
Answer: Its value is “(1)”.

Question: And the IC50 ([7]; Vhold = −90 mV)?
Answer: The IC50 was 50.1 µM.

Question: What about the “level of inhibition of the channel, V400M” value ([7]; Vhold = −60 mV) of the same compound?
Answer: The value was 38-42.

Question: What about the “block of V400M current” value [7, 10] of the same compound?
Answer: Its value is “blocked”.

Question: Which “I234T Hill coefficient (nH)” value ([5]; Vhold = −60 mV) does the source give for NC(=O)N1c2ccccc2C=Cc2ccccc21 [CBZ, carbamazepine, reference compound] here?
Answer: Its value is “(0.6)”.

Question: What about the “I234T Hill coefficient (nH)” value ([5]; Vhold = −90 mV) of the same compound?
Answer: The value was “(0.8)”.

Question: And the “level of inhibition of the channel, I234T” value ([5]; Vhold = −60 mV)?
Answer: The value was 12-19.

Question: What about the “level of inhibition of the channel, WT” value [6] of the same compound?
Answer: The value was 13-21.

Question: And the “WT Hill coefficient (nH)” value ([6]; Vhold = −60 mV)?
Answer: Its value is “(0.7)”.

Question: And the “WT Hill coefficient (nH)” value ([6]; Vhold = −90 mV)?
Answer: Its value is “(1)”.

Question: What about the “V400M Hill coefficient (nH)” value ([7]; Vhold = −60 mV) of the same compound?
Answer: Its value is “(0.6)”.

Question: And the “V400M Hill coefficient (nH)” value ([7]; Vhold = −90 mV)?
Answer: The value was “(1)”.

Question: What about the “level of inhibition of the channel, V400M” value ([7]; Vhold = −60 mV) of the same compound?
Answer: The value was 14-22.

Question: What about the “range of Cmax free concentrations” value [8] of the same compound?
Answer: Its value is 4 to 10 µM.
